Source: patent publication US10363239B2, “Method for inhibiting growth of cancer cells” (Pain Therapeutics, Inc., priority 2013, dated 2019)

Legend:
[1] = molecular target: FLNA pentapeptide of SEQ ID NO: 1 (Bn-VAKGL) (Homo sapiens, UniProt P21333); assay: FITC-NLX-based FLNA screening assay (inhibition of FITC-naloxone binding to Bn-VAKGL on streptavidin plates); conditions: for inhibition at 0.01 µM: read-out: Percent Binding Inhibition, FLNA-binding compound 0.01 μM; for inhibition at 0.01 µM / inhibition at 0.1 µM / inhibition at 1 µM: 10 nM FITC-NLX; for inhibition at 0.1 µM: read-out: Percent Binding Inhibition, FLNA-binding compound 0.1 μM; for inhibition at 1 µM: read-out: Percent Binding Inhibition, FLNA-binding compound 1 μM
[2] = tested on: mu opiate receptor (MOR); assay: MOR agonist activity using [35S]GTPγS binding assay in striatal membranes; assay type: biochemical; conditions: for MOR agonist activity ([35S]GTPγS binding), FLNA-Binding Compound as Agonist 1 μM + BFNA: 1 μM compound + 1 μM β-funaltrexamine
Outline: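 Striatal membranes (200 μg) were preincubated 5 min at 30 °C in HEPES pH 7.5 with 100 mM NaCl, 1 mM MgCl2 and 0.5 nM [35S]GTPγS, then 5 min more with 0.1–10 μM compound. Gαo was immunoprecipitated and bound radioactivity counted by scintillation.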

[3] = Series C-2, 0.1 μM compound, relative to DAMGO
[4] = Series C-2, 0.1 μM compound, [35S]GTPγS binding to Gαo, striatal membranes
[5] = Series C-2, 1 μM compound + 1 μM β-FNA
[6] = Series C-2, 1 μM compound + β-FNA, relative to DAMGO + BFNA
[7] = Series C-2, 1 μM compound, relative to DAMGO
[8] = Series C-2, 1 μM compound, [35S]GTPγS binding to Gαo, striatal membranes
[9] = 0.1 μM compound relative to DAMGO
[10] = 1 μM compound + BFNA relative to DAMGO + BFNA
[11] = 1 μM compound relative to DAMGO

SMILES: C=CCN1CCC2(CC1)OCCN2S(=O)(=O)c1ccc(OC)cc1 [Compound C0091M]
- inhibition at 0.01 µM [1]: 38.1%
- inhibition at 0.1 µM [1]: 39.8%
- inhibition at 1 µM [1]: 46.3%
- % DAMGO (0.1 μM) [2, 3]: 118.1%
- MOR agonist activity, percent [35S]GTPγS binding at the stated compound concentration [2, 4]: 207.9%
- MOR agonist activity, percent [35S]GTPγS binding at the stated compound concentration [2, 5]: 80.8%
- % DAMGO + BFNA [2, 6]: 367.3%
- % DAMGO (1 μM) [2, 7]: 108.5%
- MOR agonist activity, percent [35S]GTPγS binding at the stated compound concentration [2, 8]: 274.4%

SMILES: CC1CCC(C(C)C)C(OCC(O)CN2CCC2)C1 (centres unmarked) [Compound A0015]
- inhibition at 0.01 µM [1]: 36.3%
- inhibition at 0.1 µM [1]: 46.8%
- inhibition at 1 µM [1]: 55%
- MOR agonist activity ([35S]GTPγS binding), FLNA-Binding Compound as Agonist 0.1 μM ([2]; 0.1 μM compound): 110.9%
- % DAMGO (0.1 μM) [2, 9]: 64.8%
- MOR agonist activity ([35S]GTPγS binding), FLNA-Binding Compound as Agonist 1 μM ([2]; 1 μM compound): 150.1%
- MOR agonist activity ([35S]GTPγS binding), FLNA-Binding Compound as Agonist 1 μM + BFNA [2]: 62.5%
- % DAMGO + BFNA [2, 10]: 120.0%
- % DAMGO (1 μM) [2, 11]: 56.2%

SMILES: CC1CCC(C(C)C)C(OCC(O)CN2CCC(=O)CC2)C1 (centres unmarked) [Compound A0060]
- inhibition at 0.01 µM [1]: 32.4%
- inhibition at 0.1 µM [1]: 39%
- inhibition at 1 µM [1]: 42%
- MOR agonist activity ([35S]GTPγS binding), FLNA-Binding Compound as Agonist 0.1 μM ([2]; 0.1 μM compound): 99.7%
- % DAMGO (0.1 μM) [2, 9]: 63.9%
- MOR agonist activity ([35S]GTPγS binding), FLNA-Binding Compound as Agonist 1 μM ([2]; 1 μM compound): 158.2%
- MOR agonist activity ([35S]GTPγS binding), FLNA-Binding Compound as Agonist 1 μM + BFNA [2]: 14.3%
- % DAMGO + BFNA [2, 10]: 35.8%
- % DAMGO (1 μM) [2, 11]: 68.6%

SMILES: COc1ccccc1C(=O)CC1c2c(cc3c(c2OC)OCO3)CC[N+]1(C)C (centres unmarked) [Compound B0025]
- inhibition at 0.01 µM [1]: 41.7%
- inhibition at 0.1 µM [1]: 49.4%
- inhibition at 1 µM [1]: 56.6%
- % DAMGO (0.1 μM) ([2]; Series B, 0.1 μM compound, relative to DAMGO): 96.3%
- MOR agonist activity, percent [35S]GTPγS binding at the stated compound concentration ([2]; Series B, 0.1 μM compound, [35S]GTPγS binding to Gαo, striatal membranes): 159.6%
- MOR agonist activity, percent [35S]GTPγS binding at the stated compound concentration ([2]; Series B, 1 μM compound + 1 μM β-FNA): 137.7%
- % DAMGO + BFNA ([2]; Series B, 1 μM compound + β-FNA, relative to DAMGO + BFNA): 211.8%
- % DAMGO (1 μM) ([2]; Series B, 1 μM compound, relative to DAMGO): 86.8%
- MOR agonist activity, percent [35S]GTPγS binding at the stated compound concentration ([2]; Series B, 1 μM compound, [35S]GTPγS binding to Gαo, striatal membranes): 234.6%

SMILES: O=C1CN(Cc2ccccc2)C2(CCNCC2)N1 [Compound C0115M]
- inhibition at 0.01 µM [1]: 47.8%
- inhibition at 0.1 µM [1]: 57.8%
- inhibition at 1 µM [1]: 59.9%
- % DAMGO (0.1 μM) [2, 3]: 105.7%
- MOR agonist activity, percent [35S]GTPγS binding at the stated compound concentration [2, 4]: 177.2%
- MOR agonist activity, percent [35S]GTPγS binding at the stated compound concentration [2, 5]: 118.4%
- % DAMGO + BFNA [2, 6]: 249.3%
- % DAMGO (1 μM) [2, 7]: 102.0%
- MOR agonist activity, percent [35S]GTPγS binding at the stated compound concentration [2, 8]: 226.8%

SMILES: CC(O)c1ccc(S(=O)(=O)N2CCC3(CC2)OCCN3S(=O)(=O)c2ccc(C(C)O)cc2)cc1 (centres unmarked) [Compound C0051]
- inhibition at 0.01 µM [1]: 27%
- inhibition at 0.1 µM [1]: 30.4%
- inhibition at 1 µM [1]: 36.4%
- % DAMGO (0.1 μM) ([2]; Series C-1, 0.1 μM compound, relative to DAMGO): 65.1%
- Concentration of FLNA-Binding Compound as Agonist 0.1 μM ([2]; Series C-1, 0.1 μM compound, [35S]GTPγS binding to Gαo, striatal membranes): 94.4%
- Concentration of FLNA-Binding Compound as Agonist 1 μM + BFNA ([2]; Series C-1, 1 μM compound + 1 μM β-FNA): 55.9%
- % DAMGO + BFNA ([2]; Series C-1, 1 μM compound + β-FNA, relative to DAMGO + BFNA): 127.0%
- % DAMGO (1 μM) ([2]; Series C-1, 1 μM compound, relative to DAMGO): 73.1%
- Concentration of FLNA-Binding Compound as Agonist 1 μM ([2]; Series C-1, 1 μM compound, [35S]GTPγS binding to Gαo, striatal membranes): 170.4%

SMILES: Cc1ccc(S(=O)(=O)N2CCOC23CCN(CC2CCC2)CC3)cc1 [Compound 9]
- Binding to FLNA (conclusion in words) ([1]; preliminary study): bind well to FLNA
- MOR agonist activity, FLNA-Binding Compound as Agonist 0.1 μM (preliminary study) ([2]; 0.1 μM, average of two runs): 156.6%
- MOR agonist activity, FLNA-Binding Compound as Agonist 1 μM + βNFA (preliminary study) ([2]; 1 μM + βNFA, average of two runs): 56.6%
- MOR agonist activity, FLNA-Binding Compound as Agonist 1 μM (preliminary study) ([2]; 1 μM, average of two runs): 197.2%
- MOR agonist activity (conclusion in words) ([2]; preliminary study): MOR agonists
